According to patent US20100137305A1, “AMINOPYRIMIDINES USEFUL AS KINASE INHIBITORS” (VERTEX PHARMACEUTICALS INCORPORATED, priority 2008, published 2010):
pIC50, pKi: −log10 of the molar value. Like-named read-outs stand apart in the source and are kept apart here.

What was measured:
[1] = molecular target: Aurora-1 (Aurora B) (Homo sapiens, UniProt Q96GD4); experiment: Aurora-1 (Aurora B) Inhibition Assay (radiometric); type: biochemical; conditions: 800 μM ATP; read-out: Aurora B kinase activity Ki
Procedure: An assay buffer solution was prepared which consisted of 25 mM HEPES (pH 7.5), 10 mM MgCl2, 0.1% BSA and 10% glycerol. A 22 nM Aurora-B solution, also containing 1.7 mM DTT and 1.5 mM Kemptide (LRRASLG), was prepared in assay buffer. To 22 μL of the Aurora-B solution, in a 96-well plate, was added 2 μl of a compound stock solution in DMSO and the mixture allowed to equilibrate for 10 minutes at 25° C. The enzyme reaction was initiated by the addition of 16 μl stock [γ-^33P]-ATP Pi-ATP solution (˜20 nCi/μL) prepared in assay buffer, to a final assay concentration of 800 μM. The reaction was stopped after 3 hours by the addition of 16 μL 500 mM phosphoric acid and the levels of ^33P incorporation into the peptide substrate were determined by the following method.
A phosphocellulose 96-well plate (Millipore, Cat no. MAPHNOB50) was pre-treated with 100 μL of a 100 mM phosphoric acid prior to the addition of the enzyme reaction mixture (40 μL). The solution was left to soak on to the phosphocellulose membrane for 30 minutes and the plate subsequently washed four times with 200 μL of a 100 mM phosphoric acid. To each well of the dry plate was added 30 μL of Optiphase ‘SuperMix’ liquid scintillation cocktail (Perkin Elmer) prior to scintillation counting (1450 Microbeta Liquid Scintillation Counter, Wallac). Levels of non-enzyme catalyzed background radioactivity were determined by adding 16 μL of the 500 mM phosphoric acid to control wells, containing all assay components (which acts to denature the enzyme), prior to the addition of the [γ-^33P]-ATP solution. Levels of enzyme catalyzed ^33P incorporation were calculated by subtracting mean background counts from those measured at each inhibitor concentration. For each Ki determination 8 data points, typically covering the concentration range 0-10 μM compound, were obtained in duplicate (DMSO stocks were prepared from an initial compound stock of 10 mM with subsequent 1:2.5 serial dilutions). Ki values were calculated from initial rate data by non-linear regression using the Prism software package (Prism 3.0, Graphpad Software, San Diego, Calif.).

[2] = molecular target: N-terminally truncated (Δ 27) Abl kinase (Homo sapiens, UniProt P00519); experiment: Abl Kinase Activity Inhibition Assay, coupled enzyme system; type: biochemical; conditions: 110 μM ATP, 30° C.
Procedure: Compounds were screened for their ability to inhibit N-terminally truncated (Δ 27) Abl kinase activity using a standard coupled enzyme system (Fox et al., Protein Sci., 7, pp. 2249 (1998)). Reactions were carried out in a solution containing 100 mM HEPES (pH 7.5), 10 mM MgCl2, 25 mM NaCl, 300 μM NADH, 1 mM DTT and 3% DMSO. Final substrate concentrations in the assay were 110 μM ATP (Sigma Chemicals, St Louis, Mo.) and 70 μM peptide (EAIYAAPFAKKK, American Peptide, Sunnyvale, Calif.). Reactions were carried out at 30° C. and 21 nM Abl kinase. Final concentrations of the components of the coupled enzyme system were 2.5 mM phosphoenolpyruvate, 200 μM NADH, 60 μg/ml pyruvate kinase and 20 μg/ml lactate dehydrogenase.
An assay stock buffer solution was prepared containing all of the reagents listed above with the exception of ATP and the test compound of interest. The assay stock buffer solution (60 μl) was incubated in a 96 well plate with 2 μl of the test compound of interest at final concentrations typically spanning 0.002 μM to 30 μM at 30° C. for 10 min. Typically, a 12 point titration was prepared by serial dilutions (from 1 mM compound stocks) with DMSO of the test compounds in daughter plates. The reaction was initiated by the addition of 5 μl of ATP (final concentration 110 μM). Rates of reaction were obtained using a Molecular Devices Spectramax plate reader (Sunnyvale, Calif.) over 10 min at 30° C. The Ki values were determined from the residual rate data as a function of inhibitor concentration using nonlinear regression (Prism 3.0, Graphpad Software, San Diego, Calif.).

[3] = molecular target: T1, T315I mutant of human Abl (Homo sapiens, UniProt P00519, T315I); experiment: Mutant Abl Kinase (T315I) Activity Inhibition Assay (Upstate, radiometric); type: biochemical
T1 construct: purchased Upstate Cell Signaling Solutions (Dundee, UK)

[4] = molecular target: T2, Aurora-2 (Aurora A) (Homo sapiens, UniProt O14965); experiment: Aurora-2 (Aurora A) Inhibition Assay, coupled enzyme assay; type: biochemical; conditions: 400 μM ATP, 30° C.; read-out: Aurora A kinase activity Ki
T2 sequence (O14965 1-403): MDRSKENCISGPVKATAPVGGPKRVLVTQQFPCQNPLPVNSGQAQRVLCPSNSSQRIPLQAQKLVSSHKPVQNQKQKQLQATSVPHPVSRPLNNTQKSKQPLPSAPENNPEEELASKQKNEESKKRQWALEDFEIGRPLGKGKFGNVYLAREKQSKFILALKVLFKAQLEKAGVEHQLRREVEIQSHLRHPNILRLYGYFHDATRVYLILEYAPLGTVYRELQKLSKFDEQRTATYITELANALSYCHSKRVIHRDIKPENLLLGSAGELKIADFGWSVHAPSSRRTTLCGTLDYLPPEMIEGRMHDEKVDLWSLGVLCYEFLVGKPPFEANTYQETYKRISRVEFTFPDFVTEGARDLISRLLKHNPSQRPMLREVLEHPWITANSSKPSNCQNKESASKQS
Procedure: Compounds were screened for their ability to inhibit Aurora-2 using a standard coupled enzyme assay (Fox et al., Protein Sci., (1998) 7, 2249). Assays were carried out in a mixture of 100 mM Hepes (pH7.5), 10 mM MgCl2, 1 mM DTT, 25 mM NaCl, 2.5 mM phosphoenolpyruvate, 300 μM NADH, 30 μg/ml pyruvate kinase and 10 μg/ml lactate dehydrogenase. Final substrate concentrations in the assay were 400 μM ATP (Sigma Chemicals) and 570 μM peptide (Kemptide, American Peptide, Sunnyvale, Calif.). Assays were carried out at 30° C. and in the presence of 40 nM Aurora-2.
An assay stock buffer solution was prepared containing all of the reagents listed above, with the exception of Aurora-2 and the test compound of interest. 55 μl of the stock solution was placed in a 96 well plate followed by addition of 2 μl of DMSO stock containing serial dilutions of the test compound (typically starting from a final concentration of 7.5 μM). The plate was preincubated for 10 minutes at 30° C. and the reaction initiated by addition of 10 μl of Aurora-2. Initial reaction rates were determined with a Molecular Devices SpectraMax Plus plate reader over a 10 minute time course. IC50 and Ki data were calculated from non-linear regression analysis using the Prism software package (GraphPad Prism version 3.0cx for Macintosh, GraphPad Software, San Diego Calif., USA).

[5] = tested on: Colo205 cells; experiment: Analysis of Cell Proliferation, 3H thymidine incorporation; type: cell-based; conditions: Homo sapiens
Procedure: Compounds were screened for their ability to inhibit cell proliferation using Colo205 cells obtained from ECACC and using the assay shown below.
Colo205 cells were seeded in 96 well plates and serially diluted compound was added to the wells in duplicate. Control groups included untreated cells, the compound diluent (0.1% DMSO alone) and culture medium without cells. The cells were then incubated for 72 or 96 hrs at 37C in an atmosphere of 5% CO2/95% humidity.
To measure proliferation, 3 h prior to the end of the experiment 0.5 μCi of 3H thymidine was added to each well. Cells were then harvested and the incorporated radioactivity counted on a Wallac microplate beta-counter. Dose response curves were calculated using either Prism 3.0 (GraphPad) or SoftMax Pro 4.3.1 LS (Molecular Devices) software.

[6] = COLO 205, 96 h, 96 hours, read-out: IC50 cell proliferation after 96 hours
[7] = COLO 205, 72 h, 72 hours, read-out: IC50 cell proliferation after 72 hours

Aurora-1 (Aurora B), sequence (Q96GD4 whole entry): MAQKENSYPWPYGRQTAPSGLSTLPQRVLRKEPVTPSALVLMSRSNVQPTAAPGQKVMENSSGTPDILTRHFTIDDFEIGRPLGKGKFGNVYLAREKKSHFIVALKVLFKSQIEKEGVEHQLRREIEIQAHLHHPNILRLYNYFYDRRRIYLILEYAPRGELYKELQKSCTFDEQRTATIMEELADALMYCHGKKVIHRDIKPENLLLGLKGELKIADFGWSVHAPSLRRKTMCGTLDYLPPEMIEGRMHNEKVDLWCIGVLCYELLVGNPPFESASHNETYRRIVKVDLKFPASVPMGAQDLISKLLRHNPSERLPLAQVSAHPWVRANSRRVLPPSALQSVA

Row | SMILES | pKi [1] | pKi [2] | pKi [3] | pKi [4] | pIC50 [5, 6] | pIC50 [5, 7]
1 | CCC(=O)Nc1ccc(Sc2nc(Nc3cc(C)n[nH]3)cc(N3CCC(N4CCCC4)CC3)n2)cc1 [Compound I-41] |  | 7.00 to 7.60 | > 6.70 | ≥ 8.00 | ≥ 7.30 | 6.90 to 7.60
2 | CCC(=O)Nc1ccc(Sc2nc(Nc3cc(C)n[nH]3)cc(N3CCC(C(C)(C)O)CC3)n2)cc1 [Compound I-42] | 7.30 to 8.00 | 7.00 to 7.60 | 6.30 to 6.70 | ≥ 8.00 | ≥ 7.30 | 
3 | CCC(=O)Nc1ccc(Sc2nc(Nc3cc(C)[nH]n3)cc(N3CC[C@H](N(C)C)C3)n2)cc1 [Compound I-46] | 7.30 to 8.00 | > 7.60 |  | ≥ 8.00 | ≥ 7.30 | 
4 | CCC(=O)Nc1ccc(Sc2nc(Nc3cc(C)n[nH]3)cc(N3CCC4(CCN(C)C4)CC3)n2)cc1 [Compound I-53] |  | > 7.60 | > 6.70 | ≥ 8.00 | ≥ 7.30 | 6.90 to 7.60
5 | CCC(=O)Nc1ccc(Sc2nc(Nc3cc(C)n[nH]3)cc(N3CC[C@H](N4CCCC4)C3)n2)cc1 [Compound I-55] |  |  | 6.30 to 6.70 | ≥ 8.00 | ≥ 7.30 | 
6 | CCC(=O)Nc1ccc(Sc2nc(Nc3cc(C)n[nH]3)cc(N3CCC(N4[C@H](C)CC[C@H]4C)CC3)n2)cc1 [Compound I-57] | 7.30 to 8.00 | > 7.60 |  | ≥ 8.00 | ≥ 7.30 | 
7 | CCC(=O)Nc1ccc(Sc2nc(Nc3cc(C)n[nH]3)cc(N3CC4CN(C(C)C)CC4C3)n2)cc1 (stereo not drawn) [Compound I-60] | 7.30 to 8.00 | > 7.60 |  | ≥ 8.00 | ≥ 7.30 | 
8 | CCC(=O)Nc1ccc(Sc2nc(Nc3cc(C)n[nH]3)cc(N3CCC(O)(C(C)(C)C)CC3)n2)cc1 [Compound I-61] | 7.30 to 8.00 |  | 6.30 to 6.70 | ≥ 8.00 | ≥ 7.30 | 
9 | Cc1cc(Nc2cc(N3CCC(N4CCC(F)C4)CC3)nc(Sc3ccc(NC(=O)CC(F)(F)F)cc3)n2)[nH]n1 (stereo not drawn) [Compound I-63] | ≥ 8.00 | 7.00 to 7.60 | > 6.70 | ≥ 8.00 |  | ≥ 7.60
10 | Cc1cc(Nc2cc(N3CCC(N4CCCC4)CC3)nc(Sc3ccc(NC(=O)C4(C(F)(F)F)CC4)cc3)n2)[nH]n1 [Compound I-65] | 7.30 to 8.00 | 7.00 to 7.60 | > 6.70 | ≥ 8.00 |  | ≥ 7.60
11 | Cc1cc(Nc2cc(N3CCC(N4CCCC4)CC3)nc(Sc3ccc(NC(=O)CC(F)(F)F)cc3)n2)[nH]n1 [Compound I-68] | 7.30 to 8.00 | > 7.60 | > 6.70 | ≥ 8.00 |  | ≥ 7.60
12 | Cc1cc(Nc2cc(N3CC4CCCN(C)C4C3)nc(Sc3ccc(NC(=O)CC(F)(F)F)cc3)n2)[nH]n1 (stereo not drawn) [Compound I-69, 3,3,3-trifluoro-N-(4-(4-(3-methyl-1H-pyrazol-5-ylamino)-6-(1-methyltetrahydro-1H-pyrrolo[3,4-b]pyridin-6(2H,7H,7aH)-yl)pyrimidin-2-ylthio)phenyl)propanamide] | ≥ 8.00 | 7.00 to 7.60 | > 6.70 | ≥ 8.00 |  | ≥ 7.60
13 | Cc1cc(Nc2cc(N3CCC(N4CCOCC4)CC3)nc(Sc3ccc(NC(=O)CC(F)(F)F)cc3)n2)[nH]n1 [Compound I-72] | ≥ 8.00 |  | > 6.70 | ≥ 8.00 |  | ≥ 7.60
14 | Cc1cc(Nc2cc(N3CCC(N4CCC(F)(F)C4)CC3)nc(Sc3ccc(NC(=O)CC(F)(F)F)cc3)n2)[nH]n1 [Compound I-82] | 7.30 to 8.00 |  | 6.30 to 6.70 | ≥ 8.00 |  | 6.90 to 7.60

Results, then the compound that gave them:

Row | pKi [1] | pKi [2] | pKi [3] | pKi [4] | pIC50 [5, 6] | pIC50 [5, 7] | SMILES
15 | 7.30 to 8.00 | 7.00 to 7.60 | > 6.70 | ≥ 8.00 |  |  | CCC(=O)Nc1ccc(Sc2nc(Nc3cc(C)n[nH]3)cc(N3CCC(NC(C)(C)C)CC3)n2)cc1 [Compound I-7]
16 | 7.30 to 8.00 | > 7.60 | 6.30 to 6.70 | ≥ 8.00 | 6.70 to 7.30 |  | CCC(=O)Nc1ccc(Sc2nc(Nc3cc(C)n[nH]3)cc(N3CCC(F)C3)n2)cc1 (stereo not drawn) [Compound I-18]
17 | 7.30 to 8.00 | 7.00 to 7.60 | > 6.70 | ≥ 8.00 | 6.70 to 7.30 | 6.90 to 7.60 | Cc1cc(Nc2cc(N3CCC(F)(F)C3)nc(Sc3ccc(NC(=O)CC(F)(F)F)cc3)n2)[nH]n1 [Compound I-27]
18 | 7.30 to 8.00 | > 7.60 | > 6.70 | ≥ 8.00 | 6.70 to 7.30 |  | Cc1cnc(Nc2cc(N3CC[C@@H](N(C)C)C3)nc(Sc3ccc(NC(=O)C4CC4)cc3)n2)s1 [Compound I-29]
19 | 7.30 to 8.00 | > 7.60 |  | ≥ 8.00 | ≥ 7.30 |  | Cc1cnc(Nc2cc(N3CCC(N4CCCC4)CC3)nc(Sc3ccc(NC(=O)C4CC4)cc3)n2)s1 [Compound I-38]
20 | 7.30 to 8.00 | > 7.60 |  | ≥ 8.00 | ≥ 7.30 |  | CCN[C@H]1CCN(c2cc(Nc3cc(C)n[nH]3)nc(Sc3ccc(NC(=O)CC)cc3)n2)C1 [Compound I-39]
